{"source": "patent US10836757B1", "about": "“Polymorphic forms of metopimazine” (Neurogastrx, Inc., priority 2020, dated 2020)", "key": {"[1]": {"assay": "Clinical comparative pharmacokinetic study, 3-period cross-over, single oral doses, plasma samples", "format": "in vivo, human", "details": "for AUC(0-inf) / Cmax / Tmax: human, po, 15 mg; for AUC(0-inf): read-out: AUC0-inf Geometric Least Square Mean (GLSM); for Cmax: read-out: Cmax Geometric Least Square Mean (GLSM)", "protocol": "A clinical comparative pharmacokinetic study was performed to understand the pharmacokinetic profile of metopimazine mesylate Crystal Form A in comparison to the free base of metopimazine. This study was as a 3-period, cross-over design with 3 administrations of single doses: oral formulation of metopimazine mesylate Crystal Form A fasting, oral formulation of metopimazine mesylate Crystal Form A after a high-fat breakfast, and oral formulation of metopimazine free base fasting, with a wash-out period of 48 hours between each administration. Fifteen subjects were enrolled and received each of the 3 treatment. Plasma samples from each subject were analyzed for various pharmacokinetic parameters. Mixed model repeated measures (MMRM) analysis was performed on each sample.\nThe second objective of this study was to compare the pharmacokinetics of metopimazine mesylate Crystal Form A administered as an oral administration of a single dose of 15 mg orally in 15 human subjects either in a fasted state or after a high fat breakfast. Plasma samples from each subject were analyzed for various pharmacokinetic parameters. […] Both Cmax and AUC are well within the 90% confidence interval."}, "[2]": {"details": "administration before and after a high fat breakfast; cited from earlier work"}, "[3]": {"details": "single oral dose 15 mg, n = 15, fasted, plasma"}, "[4]": {"details": "15 mg oral, n = 15, 90% confidence interval"}, "[5]": {"details": "15 mg oral, n = 15, 90% confidence interval, *Bioequivalence"}, "[6]": {"details": "plasma, 15 mg oral, n = 15, fasted"}, "[7]": {"details": "plasma, 15 mg oral, n = 15, fed high fat breakfast (1030 kcal, 16% protein, 61% fat, 23% carbohydrate)"}}, "note": "Entries after “also recorded” stand apart in the source; their conditions may differ. Structures can show the parent of a compound that is named as a salt. Where two headings read alike, the source gives them in different places."}
{"smiles": "CS(=O)(=O)c1ccc2c(c1)N(CCCN1CCC(C(N)=O)CC1)c1ccccc1S2", "note": "[Metopimazine free base, 1-(3-(2-(methylsulfonyl)-10H-phenothiazin-10-yl)propyl)piperidine-4-carboxamide, reference compound]", "values": [{"measurement": "Tmax, Median", "setting": "[1]; [3]", "value": 60, "unit": "min"}, {"measurement": "Tmax, Min", "setting": "[1]; [3]", "value": 30, "unit": "min"}, {"measurement": "Reduction in AUC (food effect)", "setting": "[2]", "value": 23, "unit": "%"}, {"measurement": "Reduction in Cmax (food effect)", "setting": "[2]", "value": 58, "unit": "%"}]}
{"smiles": "CS(=O)(=O)c1ccc2c(c1)N(CCCN1CCC(C(N)=O)CC1)c1ccccc1S2", "note": "[Metopimazine mesylate Crystal Form A, 1-(3-(2-(methylsulfonyl)-10H-phenothiazin-10-yl)propyl)piperidine-4-carboxamide methanesulfonic acid]", "values": [{"measurement": "Reduction in Cmax when administered with food", "setting": "[1]; 15 mg oral, high fat breakfast vs fasted", "value": "approximately 15%"}, {"measurement": "Change in AUC, high fat breakfast vs fasted", "setting": "[1]; 15 mg oral, n = 15", "value": "not statistical difference; also recorded: no notable change"}, {"measurement": "Geometric mean difference in Cmax, high fat breakfast vs fasted", "setting": "[1]; 15 mg oral, n = 15", "value": "slightly but significantly lower"}, {"measurement": "Cmax ratio fasted vs fed, Lower CI %", "setting": "[1]; [4]", "value": 63.82, "unit": "%"}, {"measurement": "Cmax ratio fasted vs fed, Upper CI %", "setting": "[1]; [4]", "value": 110.75, "unit": "%"}, {"measurement": "AUC0-inf ratio fasted vs fed, Lower CI %", "setting": "[1]; [5]", "value": "86.00* %"}, {"measurement": "AUC0-inf ratio fasted vs fed, Upper CI %", "setting": "[1]; [5]", "value": "101.93* %"}, {"measurement": "AUC(0-inf)", "setting": "[1]; [6]", "value": 64, "unit": "ng·h/mL"}, {"measurement": "Cmax", "setting": "[1]; [6]", "value": 18.2, "unit": "ng/mL"}, {"measurement": "AUC(0-inf)", "setting": "[1]; [7]", "value": 59.9, "unit": "ng·h/mL"}, {"measurement": "Cmax", "setting": "[1]; [7]", "value": 15.3, "unit": "ng/mL"}, {"measurement": "Tmax", "setting": "[1]; plasma, single oral dose 15 mg, n = 15, fasted, plasma, read-out: Tmax, Mean", "value": 52.2, "unit": "min"}, {"measurement": "Tmax", "setting": "[1]; plasma, single oral dose 15 mg, n = 15, fasted, plasma, read-out: Tmax, Median", "value": 45, "unit": "min"}]}
